Like-named read-outs stand apart in the source and are kept apart here.
Assays:
IRAK4 [1] = molecular target: T1, IRAK4 (Homo sapiens, UniProt Q9NWZ3); experiment: Degradation of IRAK4 in monocytes of human PBMCs (flow cytometry); assay type: cell-based; design: endogenous in cells; settings: human PBMC monocytes, 24 hours incubation
T1 sequence (Q9NWZ3 1-460): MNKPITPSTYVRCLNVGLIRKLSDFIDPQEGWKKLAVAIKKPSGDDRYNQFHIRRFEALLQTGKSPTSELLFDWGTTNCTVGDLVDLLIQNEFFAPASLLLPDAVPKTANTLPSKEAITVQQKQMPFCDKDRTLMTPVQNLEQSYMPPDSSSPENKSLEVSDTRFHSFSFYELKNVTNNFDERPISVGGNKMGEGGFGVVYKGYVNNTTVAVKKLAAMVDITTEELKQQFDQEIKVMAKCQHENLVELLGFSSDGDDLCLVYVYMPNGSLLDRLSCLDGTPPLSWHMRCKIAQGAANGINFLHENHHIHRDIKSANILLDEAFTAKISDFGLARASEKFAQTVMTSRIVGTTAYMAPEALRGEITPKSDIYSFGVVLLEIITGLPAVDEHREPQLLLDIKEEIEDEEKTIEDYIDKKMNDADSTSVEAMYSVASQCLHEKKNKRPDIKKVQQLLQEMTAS
Experimental: The degradation level of IRAK4 in monocytes of human peripheral blood mononuclear cells (hPBMCs) was detected by flow cytometry.
On day 1, the cells were seeded at a density of 2 × 10^5 cells per well in 100 µL in a 96-well plate.
(§1) The compounds were dissolved in DMSO to a final concentration of 10 mM, and then diluted with culture medium at a 1:5 concentration gradient to prepare 10 concentrations. The diluted solutions were added to the cells to obtain a maximum final concentration of 2 µM. Wells containing cells treated with 0.1% DMSO served as the positive control
The cells were incubated at 37°C in a 5% CO2 incubator for 24 hours.
(§2) The cells were stained for viability discrimination using the LIVE/DEAD™ Fixable Blue Dead Cell Stain Kit, and surface staining of monocytes was performed with PE Mouse Anti-Human CD14, followed by incubation at 4°C for 30 minutes.
Fix buffer I, equal in volume to the cultured cells, was added, and the cells were fixed at 37°C for 10 minutes.
150 µL of Perm III reagent was added, and the cells were incubated at 4°C for 30 minutes to permeabilize the membranes.
(§3) Flow cytometry analysis was performed using a flow cytometer.
The flow cytometry data were analyzed using Flowjo software. Data presentation and DC50 calculation were performed using Prism 8.0.2 (GraphPad).

IRAK4 [2] = molecular target: T1, IRAK4; experiment: Degradation of IRAK4 in SU-DHL-2 cells (flow cytometry); assay type: cell-based; design: The degradation level of IRAK4 protein in SU-DHL-2 cell line by the compounds was detected by flow cytometry; endogenous in cells; host or cells: SU-DHL-2; OCI-LY3; settings: SU-DHL-2 cells, 24 hours incubation; read-out: SU-DHL-2 DC50
Experimental: The degradation level of IRAK4 protein in SU-DHL-2 cell line by the compounds was detected by flow cytometry.
as §1, with “Step 2: On day 1, the cells were seeded at a density of 2 × 10^5 cells per well in 100 µL in a 96-well plate. The compounds” for “The compounds”, “[…] The cells were incubated at 37°C in a 5% CO2 incubator for 24 hours.” for “positive control”
as §2, with “Step 3: After centrifugation, the cells were washed with FACS buffer. The” for “The”
Step 4: After centrifugation, the cells were washed with FACS buffer. Fix buffer I, equal in volume to the cultured cells, was added, and the cells were fixed at 37°C for 10 minutes.
Step 5: After centrifugation, the cells were washed with FACS buffer. 150 µL of Perm III reagent was added, and the cells were incubated at 4°C for 30 minutes to permeabilize the membranes. After centrifugation, the cells were washed with FACS buffer.
as §3
The flow cytometry data were analyzed using Flowjo software. Data presentation and DC50 (half-maximal degradation concentration) calculation were performed using Prism 8.0.2 (GraphPad).

TNFα secretion = experiment: Inhibition of induced TNFα secretion in human PBMCs (CBA); assay type: cell-based; settings: PBMC
Experimental: (§4) The effect of PROTAC small molecules on inflammatory factors in PBMCs downstream of IRAK4 induced by TLR and IL-1 was detected based on the CBA (cytometric bead array) method.
(§5) Step 2: The density of PBMCs was adjusted to 1 E6/mL, and 150 µL of PBMCs in 1640 complete medium were seeded into a 96-well plate, followed by incubation at 37°C for 1 hour.
(§6) Step 3: 50 µL of serially diluted small molecule (working concentration: 10000 nM, 1:3 dilution) drugs were inoculated into the plate in a 37°C incubator for 8 hours.
(§7) Step 4: 10 µL of stimulants were added respectively, with final concentrations of 100 ng/mL for LPS, 1 µg/mL for R848, and 100 ng/mL for IL-1β.
(§8) Step 5: CBA assay. The concentrations of IL-6 and TNF-α in the cell culture supernatant were determined using Hu IL-6 CBA Flex Set A7 and Hu TNF- CBA Flex Set D9.
(§9) Step 6: Standard samples were prepared: 2500 pg/mL, 1250 pg/mL,...0. A 1:2 serial dilution was performed to obtain 10 concentrations.
(§10) Step 7: The mixed capture beads were resuspended in capture bead diluent (1:50), and cell culture supernatant (50 µL) was added, followed by incubation at room temperature for 10 minutes.
(§11) Step 8: The detection reagent prepared with detection diluent was added, and the mixture was incubated in the dark at room temperature for 3 hours. At the end of incubation, the samples were washed once with wash buffer and resuspended for detection.
(§12) The concentrations of IL-6 and TNFα were calculated using the standard curve method. Data presentation and IC50 calculation were performed using Prism 8.0.2.

[3] = mice, 8 hours after last administration
Experimental: Experimental animals: SPF-grade male C57BL/6J mice aged 6-8 weeks.
Preparation of compound: 10% DMSO + 50% PEG400 + 40% sterile water for injection. The compound was dissolved in DMSO, followed by the addition of PEG400 and sterile water for injection, and the solution was adjusted to clarity with 6N hydrochloric acid.
Compound administration and IL-33 inflammatory induction: The mice were randomly grouped according to body weight and orally administered with the compound at final doses of 15 mg/kg, 50 mg/kg, and 150 mg/kg, twice daily. At 4 hours after the last administration of the compound, the mice were intraperitoneally injected with 1 µg/100 µL PBS of IL-33 for inflammatory induction.
Termination, sample collection, and data: Plasma, peritoneal lavage fluid, and spleen were collected for subsequent sample index detection.
The experiment was terminated 8 hours after the last administration. The mice were anesthetized, and cardiac blood was collected. The blood samples were anticoagulated with EDTA-K2, centrifuged at 3500 rpm for 15 minutes, and the upper plasma was collected.

IL-6 secretion = experiment: Inhibition of induced IL-6 secretion in human PBMCs (CBA); assay type: cell-based; settings: PBMC
Experimental: as §4, §5, §6, §7, §8, §9, §10, §11, §12

[4] = Dog pharmacokinetics, oral gavage (Experiment 3); assay type: in vivo; settings: Beagle dogs, oral gavage 2.5 mg/kg, plasma
Experimental: Healthy Beagle dogs, male, weighing about 8-10 kg, 3 animals per group.
The animals were not fasted and had free access to water.
Venous blood (0.5-0.8 mL) was collected at 15 minutes, 30 minutes, 1 hour, 2 hours, 4 hours, 8 hours, and 24 hours after oral gavage administration, placed in K2EDTA tubes, and centrifuged at 4°C to separate plasma. The concentration of the compound in plasma was determined by liquid chromatography-tandem mass spectrometry.
The main pharmacokinetic parameters were calculated using WinNonlin. […] Table 8. Pharmacokinetic parameters of some compounds of the present disclosure administered orally to dogs

hERG potassium channel = hERG potassium channel (Homo sapiens, UniProt Q12809); experiment: Inhibition of hERG potassium channel, whole-cell manual patch clamp in CHO-hERG cells; settings: @ 1 µM test compound
Chain of hERG potassium channel (Q12809 whole entry): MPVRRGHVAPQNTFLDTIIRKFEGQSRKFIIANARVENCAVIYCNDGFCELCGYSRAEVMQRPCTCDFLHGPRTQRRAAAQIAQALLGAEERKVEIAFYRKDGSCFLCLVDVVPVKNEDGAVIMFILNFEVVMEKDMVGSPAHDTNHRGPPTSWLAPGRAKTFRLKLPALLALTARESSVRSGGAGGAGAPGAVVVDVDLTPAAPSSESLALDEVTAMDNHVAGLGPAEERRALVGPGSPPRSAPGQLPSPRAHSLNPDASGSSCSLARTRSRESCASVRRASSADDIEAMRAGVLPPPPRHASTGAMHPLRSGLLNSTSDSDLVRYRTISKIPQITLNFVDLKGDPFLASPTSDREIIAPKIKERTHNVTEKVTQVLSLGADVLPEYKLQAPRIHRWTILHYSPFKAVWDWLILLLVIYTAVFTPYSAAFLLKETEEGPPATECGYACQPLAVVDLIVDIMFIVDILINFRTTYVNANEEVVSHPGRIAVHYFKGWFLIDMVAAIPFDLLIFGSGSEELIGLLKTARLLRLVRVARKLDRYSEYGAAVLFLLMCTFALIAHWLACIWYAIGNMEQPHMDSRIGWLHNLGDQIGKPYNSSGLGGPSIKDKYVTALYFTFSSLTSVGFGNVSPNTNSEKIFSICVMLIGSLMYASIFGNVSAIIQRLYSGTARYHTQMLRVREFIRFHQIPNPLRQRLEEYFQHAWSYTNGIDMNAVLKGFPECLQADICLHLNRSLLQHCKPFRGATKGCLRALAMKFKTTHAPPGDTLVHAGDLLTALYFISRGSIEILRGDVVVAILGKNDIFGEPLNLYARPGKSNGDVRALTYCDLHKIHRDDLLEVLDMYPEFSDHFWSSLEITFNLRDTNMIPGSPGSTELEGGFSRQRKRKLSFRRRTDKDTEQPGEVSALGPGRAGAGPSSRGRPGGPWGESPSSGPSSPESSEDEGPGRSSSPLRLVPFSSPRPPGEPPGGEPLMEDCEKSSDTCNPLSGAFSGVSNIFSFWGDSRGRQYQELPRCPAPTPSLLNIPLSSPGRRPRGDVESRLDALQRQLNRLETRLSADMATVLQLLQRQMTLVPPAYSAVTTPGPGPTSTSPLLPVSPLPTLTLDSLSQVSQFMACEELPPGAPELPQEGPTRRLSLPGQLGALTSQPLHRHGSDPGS
Experimental: The effects of compounds on hERG potassium channel (human Ether-a-go-go Related Gene potassium channel) currents were tested using the whole-cell manual voltage-clamp electrophysiological method.
CHO cells stably expressing hERG were cultured in cell culture dishes with a diameter of 35 mm and incubated at 37°C in a 5% CO2 incubator. The cells were passaged at a ratio of 1:5 every 48 hours. The culture medium was formulated as follows: 90% F12 (Invitrogen), 10% fetal bovine serum (Gibco), 100 g/mL G418 (Invitrogen), and 100 g/mL Hygromycin B (Invitrogen). On the day of the experiment, the cell culture medium was aspirated, and the cells were rinsed once with extracellular solution. […] The digestion solution was aspirated, and the cells were resuspended in extracellular solution and then transferred to experimental dishes for electrophysiological recording for later use.
On the day of testing, the compounds were prepared as 10 mM stock solutions in DMSO, then diluted to 1 mM with DMSO, and further diluted 1000-fold with extracellular solution to obtain the desired final test concentration.
hERG potassium channel currents were recorded at room temperature using the whole-cell patch-clamp technique in CHO cells stably expressing the hERG channel. The glass microelectrode was prepared by pulling the glass electrode blank (BF150-86-10, Sutter) with a puller, and the tip resistance after filling with the internal electrode solution was about 2-5 MΩ. The glass microelectrode was inserted into the amplifier probe and then connected to the patch-clamp amplifier. The clamping voltage and data recording were controlled and recorded by pClamp software via a computer, with a sampling frequency of 10 kHz and a filtering frequency of 2 kHz. After obtaining the whole-cell recording, cells were clamped at -100 mV. The hERG potassium current (IhERG) was evoked by applying a 2 s depolarizing voltage step from -100 mV to +20 mV, followed by repolarization to -50 mV for 1 s before returning to -100 mV. […]
Data were analyzed and processed using pClamp, GraphPad Prism 8 and Excel software. […]

Structure (SMILES)	DC50 (IRAK4 [1])	DC50 (IRAK4 [2])	IC50 (TNFα secretion; IL-1β 100 ng/mL, read-out: IC50, TNFα secretion induced by IL-1β)	IC50 (TNFα secretion; LPS 100 ng/mL, read-out: IC50, TNFα secretion induced by LPS)	IC50 (TNFα secretion; R848 1 µg/mL, read-out: IC50, TNFα secretion induced by R848)	C8hr Plasma ([3]; PO 15 mpk twice daily)	C8hr Spleen ([3]; PO 15 mpk twice daily)	C8hr Plasma ([3]; PO 50 mpk twice daily)	C8hr Spleen ([3]; PO 50 mpk twice daily)	C8hr Plasma ([3]; PO 150 mpk twice daily)	C8hr Spleen ([3]; PO 150 mpk twice daily)	IC50 (IL-6 secretion; IL-1β 100 ng/mL, read-out: IC50 of compounds against induced secretion, IL-6, IL-1β)	IC50 (IL-6 secretion; LPS 100 ng/mL, read-out: IC50 of compounds against induced secretion, IL-6, LPS)	IC50 (IL-6 secretion; R848 1 µg/mL, read-out: IC50 of compounds against induced secretion, IL-6, R848)	AUC(0-t) at 24 h [4]	Cmax [4]	MRT inf [4]	half-life [4]	hERG (inhibition%) (hERG potassium channel)
Cn1c(=O)n(C2CCC(=O)NC2=O)c2cccc(C#CC(C)(C)N3CCC(C(=O)N4CCC5(CC4)CC(n4cc(NC(=O)c6cnn7ccc(N8C[C@H]9C[C@@H]8CO9)nc67)c(C(F)F)n4)C5)CC3)c21 (stereo partly shown) [Example 56]	1.1 nM	5 nM	–	–	–	–	–	–	–	–	–	–	–	–	–	–	–	–	–
Cn1c(=O)n(C2CCC(=O)NC2=O)c2cccc(C#CCOC3CCN(C[C@H]4CC[C@H](n5cc(NC(=O)c6cnn7ccc(N8C[C@H]9C[C@@H]8CO9)nc67)c(C(F)F)n5)CC4)CC3)c21 (stereo partly shown) [KT-474, reference compound]	–	–	13 nM	31 nM	52 nM	100 ng/mL	896 ng/mL	262 ng/mL	1740 ng/mL	578 ng/mL	7262 ng/mL	18 nM	41 nM	14 nM	380 ng·h/mL	31 ng/mL	10.3 h	6.7 h	47% @ 1 µM

From patent EP4656640A1, “IRAK4 DEGRADER AND USE THEREOF” (Shanghai Qilu Pharmaceutical Research and Development …, priority 2023, dated 2024)
